The values that follow come from the METLIN SMRT retention time set (Domingo-Almenara et al. 2019).

A short description of the series: gradient 5% acetonitrile 3 min, to 50% in 2 min, to 85% in 15 min, held 3 min, 100 µL/min. Conditions: column: Zorbax Extend-C18 2.1 x 50 mm; eluents: water / acetonitrile, 0.1% formic acid. Summed up: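 Pure standards were analyzed in mixtures of ~100 molecules using HPLC coupled to a quadrupole time-of-flight mass spectrometer, in both positive and negative ionization mode. Separation used a Zorbax Extend-C18 column (2.1 × 50 mm, 1.8 μm) at 100 μL/min, with water and acetonitrile each containing 0.1% formic acid. Dead and dwell volumes were 40 μL and 900 μL, and data were collected over 3 months. Retention time was read from computationally picked adduct peaks, each inspected manually.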
Turning to `CNS(=O)(=O)c1cccnc1Nc1ccc(F)cc1`, the RP-LC retention time was 863 s.

As to `COc1cccc(NC(=O)c2c[nH]c3nc(C)ccc3c2=O)c1`, the RP-LC retention time was determined as 791 s.

In the case of `Cc1cccc(-n2c(N3CCCC(C(=O)NCc4ccccc4)C3)nc3ccsc3c2=O)c1` (centres undefined), the RP-LC retention time amounted to 880 s.

For the compound `O=C(OCCN1CCN(C2=NS(=O)(=O)c3ccccc32)CC1)c1ccccc1`, the RP-LC retention time is 656 s.

For the compound `Cn1cccc1C(=O)NCCn1c(=O)n(Cc2ccccc2)c2cccnc21`, the RP-LC retention time stood at 767 s.

`Cc1nc(-c2cccs2)sc1C(=O)NCCn1nc(-n2ccnc2C)ccc1=O` returned an RP-LC retention time of 564 s.

With `COc1ccc(NC(=O)N2CCc3c(c(-c4nnc(-c5ccc(F)cc5)o4)nn3C)C2)cc1OC`, the RP-LC retention time is 766 s.

With `CCN1C(=O)c2cccnc2Sc2cc(NC(=O)CCOC)ccc21`, the RP-LC retention time is 645 s.

`Cc1ccccc1-c1noc(Cn2ccn(-c3c(C)cccc3C)c(=O)c2=O)n1` gave an RP-LC retention time of 923 s.

Consider `CC1Oc2ccc(-c3csc(NC(=O)c4ccc(F)cc4)n3)cc2N(C)C1=O` (centres undefined), for which the RP-LC retention time was determined as 1010 s.

The compound `CC1CCCCN1CCNC(=O)c1ccc2ccnc(N3CCN(c4ccc(Cl)cc4)CC3)c2c1` (centres undefined) showed an RP-LC retention time of 664 s.

On to `O=C(Nc1cccc(C(F)(F)F)c1)NC1(c2nc(C3CC3)no2)CCCCC1`, for which the RP-LC retention time was found to be 1030 s.

Turning to `O=C(CCNc1c(-c2ccc(F)cc2)nc2cnccn12)Nc1ccc2c(c1)OCCO2`, the RP-LC retention time was 704 s.

Compound `CC(C)Cc1ccc(S(=O)(=O)NC2CCCN(c3ccc(=O)n(CC4CC4)n3)C2)cc1` (centres undefined) gave an RP-LC retention time of 1050 s.

In turn, `COC(=O)CNC(=O)N1Cc2ccccc2OC2(CCN(C(C)C)CC2)C1` came in with an RP-LC retention time of 595 s.

`CC1CCN(c2cc(-n3cnc(C(=O)N4CCc5ccccc54)c3)ncn2)CC1` had an RP-LC retention time of 1140 s.

In turn, `O=C(NCc1cccs1)C1CCN(S(=O)(=O)c2cc(C(=O)N3CCCCCC3)cs2)CC1` came in with an RP-LC retention time of 861 s.

As for `CC(C)NC(=O)c1ccc(OCC2CCCN(C(=O)Cc3ccc(F)cc3)C2)cc1` (centres undefined), the RP-LC retention time turned out to be 979 s.

With `COc1cccc(-c2nc(NCc3ccncc3)ncc2C(=O)O)c1`, the RP-LC retention time was determined as 577 s.

`Cc1ccccc1Nc1c(-c2cccc(O)c2)nc2cnccn12` came in with an RP-LC retention time of 744 s.

Compound `O=C(NCc1ccccc1F)C1CCCN(c2cnc3nccnc3c2)C1` (centres undefined) gave an RP-LC retention time of 680 s.

As for `Cn1nc(C(=O)N2CCCC(C(=O)Nc3ccccc3)C2)c2c1CCN(C(=O)c1cccs1)C2` (centres undefined), the RP-LC retention time amounted to 730 s.

`COc1ccc(N2CCCCn3c2nc2c3c(=O)n(C)c(=O)n2C)cc1` yielded an RP-LC retention time of 759 s.

As to `COc1ccc(NC(=O)NCC(=O)N2CCc3ccccc32)c(OC)c1`, the RP-LC retention time is 762 s.

Compound `CCOc1ccc(-c2noc(CN3N=NC4C(=O)N(c5ccc(C)c(F)c5)C(=O)C43)n2)cc1OC` (centres undefined) returned an RP-LC retention time of 801 s.

`Cc1cc(C(=O)N2C[C@@H](CO)[C@H](N(C)C)C2)ccc1Br`: the RP-LC retention time came to 597 s.

As to `CCc1nn2c(CNC(=O)c3ccc(OC)cc3)c(-c3ccccc3)nc2s1`, the RP-LC retention time was 881 s.

Consider `O=c1c(NCCc2ccc(Cl)cc2)nccn1-c1ccc2c(c1)OCO2`, for which the RP-LC retention time was found to be 870 s.

`C=C(C)CN1CCN(c2cc(C)nc3c(C)c(-c4ccc(Cl)cc4)nn23)CC1`: the RP-LC retention time was 693 s.

As to `COc1ccc(C2CCCN2C(=O)c2ccnn2C)cc1` (centres undefined), the RP-LC retention time worked out at 722 s.

Compound `Cc1ccc2c(C(=O)NCCc3cccnc3)cc(NC(=O)C(C)C)cc2n1` showed an RP-LC retention time of 550 s.

`CCc1cc(=O)n(CC(=O)Nc2ccc(C)cc2C)c(N2CCOCC2)n1` returned an RP-LC retention time of 767 s.

As to `Cc1ccc(NC(=O)Cn2c(=O)nc(N3CCCC(C)C3)c3ccccc32)cc1C` (centres undefined), the RP-LC retention time worked out at 895 s.

In turn, `CCn1c(C(=O)NCc2ccccc2)cc2sc(Cl)cc21` showed an RP-LC retention time of 1110 s.

Compound `COc1ccc2c(c1)C1(CCN(S(=O)(=O)c3cccc(C#N)c3)C1)C(=O)N2C` (centres undefined) registered an RP-LC retention time of 875 s.

In turn, `CCn1c(=O)sc2cc(S(=O)(=O)N3CCC(C(=O)NC4CCCCC4)CC3)ccc21` returned an RP-LC retention time of 876 s.

The compound `Cc1ccc(-c2ccc(=O)n(Cc3nc(-c4cccs4)no3)n2)cc1C` yielded an RP-LC retention time of 1060 s.

`Cc1ccc(NC(=O)N2CCC(n3cnc4cc(Cl)ccc4c3=O)CC2)cc1` returned an RP-LC retention time of 856 s.

`CCOC(=O)c1noc2ncnc(Nc3cccc(C)c3C)c12` had an RP-LC retention time of 948 s.

Regarding `COCCNC(=O)COc1cc(C)nc(-c2ccc(Cl)cc2)n1`, the RP-LC retention time was 828 s.

Consider `Cc1ccc(N(Cc2ccccc2)S(=O)(=O)c2ccc3nnc(C)n3c2)cc1`, for which the RP-LC retention time worked out at 884 s.

`O=C(NCCCN1CCCC1=O)C1CCN(c2cncnc2N2CCOCC2)CC1` showed an RP-LC retention time of 535 s.

`Nc1cc(C2CCN(C(=O)Nc3cccc(Cl)c3F)CC2)no1` came in with an RP-LC retention time of 676 s.

Compound `COCCN1C(=O)[C@H]2CN(Cc3ccc(OC)c(OC)c3OC)C[C@H]2C1=O` came in with an RP-LC retention time of 799 s.

In turn, `Cc1cc(=O)n(CC(=O)Nc2ccccc2C)c(N)n1` showed an RP-LC retention time of 590 s.

Regarding `Cc1ccc(CNC(=O)C2CCCN(c3nc4ccsc4c(=O)n3-c3ccc(C)cc3)C2)cc1` (centres undefined), the RP-LC retention time was found to be 977 s.

`COc1cccc(N2CCN(C(=O)C3CCN(c4nnc(-c5ccccc5)o4)CC3)CC2)c1` gave an RP-LC retention time of 807 s.

`CC(NC(=O)c1ccc(-c2cncnc2)nc1)c1ccccc1` (centres undefined) showed an RP-LC retention time of 715 s.

`COc1ccccc1-n1nnc(C(=O)N2CCc3ccccc32)c1-c1ccccn1` displayed an RP-LC retention time of 836 s.

Regarding `CC(=O)Nc1onc(C)c1-c1ccc(C)c(S(=O)(=O)N2CCN(C3CCCCC3)CC2)c1`, the RP-LC retention time came to 629 s.

Take `COc1ccc(CN2C[C@@H]3C(=O)N(C)C(=O)[C@@H]3C2)cc1OC`: the RP-LC retention time was 566 s.

As to `COc1cc(F)ccc1-c1ccnc2ncnn12`, the RP-LC retention time was 681 s.

For `Cc1ccc(S(=O)(=O)N2CCC3(CC2)NCCCN=C3NC2CCCC2)cc1Cl`, the RP-LC retention time was determined as 814 s.

For `CCc1ccc(CNC(=O)c2cn(CC)nc2S(=O)(=O)N2CCC(C)CC2)cc1`, the RP-LC retention time came to 1180 s.

As to `O=C(CSc1nccn1-c1ccc(C(=O)NCc2cccs2)cc1)Nc1ccccc1`, the RP-LC retention time was 671 s.

With `CCOc1ccc(-c2nc(C3CC(=O)N(c4ccc(CC)cc4)C3)no2)cc1OCC` (centres undefined), the RP-LC retention time amounted to 1180 s.

The compound `O=C(CC1COc2ccccc2NC1=O)Nc1ccc2c(c1)OCCO2` (centres undefined) showed an RP-LC retention time of 688 s.

`Cc1ccsc1-c1nnc(CC(=O)N2CCN(C3CCCCC3)CC2)o1` had an RP-LC retention time of 616 s.

Regarding `O=C(NCC1CCCO1)c1cc(S(=O)(=O)N2CCCCCC2)ccc1Cl` (centres undefined), the RP-LC retention time came out at 842 s.
